Source: patent publication US4068070A, “α-Cyanoamine compounds and a process for producing the same” (Fuji Chemical Industry Co., Ltd., priority 1974, dated 1978)

Key:
Assay type in all cases: in vivo, mongrel adult dogs
[1] = test system: arterial mean blood pressure; assay: Effects on arterial mean blood pressure
Summary of the method: (§1)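 Anaesthetised (pentobarbital sodium) thoracotomised mongrel dogs of either sex, about 10 kg, dosed intravenously via brachial vein, compounds in 0.2% CMC, HCl solution (pH 6) or saline. Arterial pressure via carotid cannula transducer, aortic and coronary sinus outflow by electromagnetic flowmeter, sinus pO2 by electrode after Morawitz cannulation.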

heart rate = assay: Effects on heart rate
Summary of the method: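 Adult mongrel dogs of both sexes were anesthetized with pentobarbital and thoracotomized. Test agents, suspended or dissolved in 0.2% CMC, pH 6 HCl solution or saline, were injected intravenously into the brachial vein. Hemodynamic and coronary sinus parameters were then recorded.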

aortic blood flow = assay: Effects on aortic blood flow
Summary of the method: as §1

[2] = test system: coronary sinus oxygen tension; assay: Effects on coronary sinus oxygen tension
Summary of the method: as §1

coronary sinus out flow = assay: Effects on coronary sinus out flow
Summary of the method: as §1

## COc1ccc(C(C#N)N2CCN(CC=Cc3ccccc3)CC2)cc1OC (centres unmarked) [Compound D]
[1]; 2.0 mg/kg i.v., 1 min
  Changes (%) of basal values, arterial mean blood pressure: +1.6%
[1]; 2.0 mg/kg i.v., 5 min
  Changes (%) of basal values, arterial mean blood pressure: -3.0%
[1]; 2.0 mg/kg i.v., 10 min
  Changes (%) of basal values, arterial mean blood pressure: -1.5%
[1]; 2.0 mg/kg i.v., 20 min
  Changes (%) of basal values, arterial mean blood pressure: -0.5%
[1]; 2.0 mg/kg i.v., 30 min
  Changes (%) of basal values, arterial mean blood pressure: 0%
[1]; 2.0 mg/kg i.v., 40 min
  Changes (%) of basal values, arterial mean blood pressure: 0%
[1]; 2.0 mg/kg i.v., imm.
  Changes (%) of basal values, arterial mean blood pressure: -13.6%
[1]; 6.0 mg/kg i.v., 1 min
  Changes (%) of basal values, arterial mean blood pressure: -9.7%
[1]; 6.0 mg/kg i.v., 5 min
  Changes (%) of basal values, arterial mean blood pressure: -10.3%
[1]; 6.0 mg/kg i.v., 10 min
  Changes (%) of basal values, arterial mean blood pressure: -10.0%
[1]; 6.0 mg/kg i.v., 20 min
  Changes (%) of basal values, arterial mean blood pressure: -6.0%
[1]; 6.0 mg/kg i.v., 30 min
  Changes (%) of basal values, arterial mean blood pressure: -3.0%
[1]; 6.0 mg/kg i.v., 40 min
  Changes (%) of basal values, arterial mean blood pressure: -1.0%
[1]; 6.0 mg/kg i.v., imm.
  Changes (%) of basal values, arterial mean blood pressure: -36.1%
[1]; 20.0 mg/kg i.v., 1 min
  Changes (%) of basal values, arterial mean blood pressure: -19.7%
[1]; 20.0 mg/kg i.v., 5 min
  Changes (%) of basal values, arterial mean blood pressure: -14.4%
[1]; 20.0 mg/kg i.v., 10 min
  Changes (%) of basal values, arterial mean blood pressure: -13.5%
[1]; 20.0 mg/kg i.v., 20 min
  Changes (%) of basal values, arterial mean blood pressure: -8.3%
[1]; 20.0 mg/kg i.v., 30 min
  Changes (%) of basal values, arterial mean blood pressure: -5.1%
[1]; 20.0 mg/kg i.v., 40 min
  Changes (%) of basal values, arterial mean blood pressure: -3.1%
[1]; 20.0 mg/kg i.v., imm.
  Changes (%) of basal values, arterial mean blood pressure: -45.0%
[1]; i.v., anesthetized dogs
  Effects on arterial mean blood pressure (in words): hypotensive effects being proportioned to their doses which were of long duration
Heart rate; 2.0 mg/kg i.v., 1 min
  Changes(%) of basal values, heart rate: +1.0%
Heart rate; 2.0 mg/kg i.v., 5 min
  Changes(%) of basal values, heart rate: 0%
Heart rate; 2.0 mg/kg i.v., 10 min
  Changes(%) of basal values, heart rate: 0%
Heart rate; 2.0 mg/kg i.v., 20 min
  Changes(%) of basal values, heart rate: 0%
Heart rate; 2.0 mg/kg i.v., 30 min
  Changes(%) of basal values, heart rate: 0%
Heart rate; 2.0 mg/kg i.v., 40 min
  Changes(%) of basal values, heart rate: 0%
Heart rate; 2.0 mg/kg i.v., imm.
  Changes(%) of basal values, heart rate: -0.6%
Heart rate; 6.0 mg/kg i.v., 1 min
  Changes(%) of basal values, heart rate: +1.5%
Heart rate; 6.0 mg/kg i.v., 5 min
  Changes(%) of basal values, heart rate: -0.9%
Heart rate; 6.0 mg/kg i.v., 10 min
  Changes(%) of basal values, heart rate: -1.6%
Heart rate; 6.0 mg/kg i.v., 20 min
  Changes(%) of basal values, heart rate: -1.0%
Heart rate; 6.0 mg/kg i.v., 30 min
  Changes(%) of basal values, heart rate: -0.5%
Heart rate; 6.0 mg/kg i.v., 40 min
  Changes(%) of basal values, heart rate: 0%
Heart rate; 6.0 mg/kg i.v., imm.
  Changes(%) of basal values, heart rate: -1.5%
Heart rate; 20.0 mg/kg i.v., 1 min
  Changes(%) of basal values, heart rate: -3.1%
Heart rate; 20.0 mg/kg i.v., 5 min
  Changes(%) of basal values, heart rate: -3.5%
Heart rate; 20.0 mg/kg i.v., 10 min
  Changes(%) of basal values, heart rate: -3.9%
Heart rate; 20.0 mg/kg i.v., 20 min
  Changes(%) of basal values, heart rate: -2.8%
Heart rate; 20.0 mg/kg i.v., 30 min
  Changes(%) of basal values, heart rate: -1.3%
Heart rate; 20.0 mg/kg i.v., 40 min
  Changes(%) of basal values, heart rate: -0.5%
Heart rate; 20.0 mg/kg i.v., imm.
  Changes(%) of basal values, heart rate: -14.5%
Heart rate; i.v., anesthetized dogs
  Effects on heart rate (in words): a slight negative chronotropic effect
Aortic blood flow; 2.0 mg/kg i.v., 1 min
  Changes (%) of basal values, aortic blood flow: +3.3%
Aortic blood flow; 2.0 mg/kg i.v., 5 min
  Changes (%) of basal values, aortic blood flow: -0.8%
Aortic blood flow; 2.0 mg/kg i.v., 10 min
  Changes (%) of basal values, aortic blood flow: 0%
Aortic blood flow; 2.0 mg/kg i.v., 20 min
  Changes (%) of basal values, aortic blood flow: 0%
Aortic blood flow; 2.0 mg/kg i.v., 30 min
  Changes (%) of basal values, aortic blood flow: 0%
Aortic blood flow; 2.0 mg/kg i.v., 40 min
  Changes (%) of basal values, aortic blood flow: 0%
Aortic blood flow; 2.0 mg/kg i.v., imm.
  Changes (%) of basal values, aortic blood flow: +8.3%
Aortic blood flow; 6.0 mg/kg i.v., 1 min
  Changes (%) of basal values, aortic blood flow: +3.3%
Aortic blood flow; 6.0 mg/kg i.v., 5 min
  Changes (%) of basal values, aortic blood flow: -2.7%
Aortic blood flow; 6.0 mg/kg i.v., 10 min
  Changes (%) of basal values, aortic blood flow: +0.7%
Aortic blood flow; 6.0 mg/kg i.v., 20 min
  Changes (%) of basal values, aortic blood flow: +0.5%
Aortic blood flow; 6.0 mg/kg i.v., 30 min
  Changes (%) of basal values, aortic blood flow: 0%
Aortic blood flow; 6.0 mg/kg i.v., 40 min
  Changes (%) of basal values, aortic blood flow: 0%
Aortic blood flow; 6.0 mg/kg i.v., imm.
  Changes (%) of basal values, aortic blood flow: +12.0%
Aortic blood flow; 20.0 mg/kg i.v., 1 min
  Changes (%) of basal values, aortic blood flow: +16.3%
Aortic blood flow; 20.0 mg/kg i.v., 5 min
  Changes (%) of basal values, aortic blood flow: -3.8%
Aortic blood flow; 20.0 mg/kg i.v., 10 min
  Changes (%) of basal values, aortic blood flow: -4.0%
Aortic blood flow; 20.0 mg/kg i.v., 20 min
  Changes (%) of basal values, aortic blood flow: -3.4%
Aortic blood flow; 20.0 mg/kg i.v., 30 min
  Changes (%) of basal values, aortic blood flow: -1.8%
Aortic blood flow; 20.0 mg/kg i.v., 40 min
  Changes (%) of basal values, aortic blood flow: -0.3%
Aortic blood flow; 20.0 mg/kg i.v., imm.
  Changes (%) of basal values, aortic blood flow: +27.4%
Aortic blood flow; i.v., anesthetized dogs
  Effects on aortic blood flow (in words): an increase in blood flow immediately after administration, followed by a decrease in blood flow
[2]; 2.0 mg/kg i.v., 1 min
  Changes(%) of basal values, coronary sinus oxygen tension: +2.7%
[2]; 2.0 mg/kg i.v., 5 min
  Changes(%) of basal values, coronary sinus oxygen tension: +0.5%
[2]; 2.0 mg/kg i.v., 10 min
  Changes(%) of basal values, coronary sinus oxygen tension: -1.0%
[2]; 2.0 mg/kg i.v., 20 min
  Changes(%) of basal values, coronary sinus oxygen tension: -0.5%
[2]; 2.0 mg/kg i.v., 30 min
  Changes(%) of basal values, coronary sinus oxygen tension: 0%
[2]; 2.0 mg/kg i.v., 40 min
  Changes(%) of basal values, coronary sinus oxygen tension: 0%
[2]; 2.0 mg/kg i.v., imm.
  Changes(%) of basal values, coronary sinus oxygen tension: +6.7%
[2]; 6.0 mg/kg i.v., 1 min
  Changes(%) of basal values, coronary sinus oxygen tension: +14.0%
[2]; 6.0 mg/kg i.v., 5 min
  Changes(%) of basal values, coronary sinus oxygen tension: +5.8%
[2]; 6.0 mg/kg i.v., 10 min
  Changes(%) of basal values, coronary sinus oxygen tension: +1.0%
[2]; 6.0 mg/kg i.v., 20 min
  Changes(%) of basal values, coronary sinus oxygen tension: -1.0%
[2]; 6.0 mg/kg i.v., 30 min
  Changes(%) of basal values, coronary sinus oxygen tension: 0%
[2]; 6.0 mg/kg i.v., 40 min
  Changes(%) of basal values, coronary sinus oxygen tension: 0%
[2]; 6.0 mg/kg i.v., imm.
  Changes(%) of basal values, coronary sinus oxygen tension: +23.8%
[2]; 20.0 mg/kg i.v., 1 min
  Changes(%) of basal values, coronary sinus oxygen tension: +43.8%
[2]; 20.0 mg/kg i.v., 5 min
  Changes(%) of basal values, coronary sinus oxygen tension: -21.2%
[2]; 20.0 mg/kg i.v., 10 min
  Changes(%) of basal values, coronary sinus oxygen tension: +8.4%
[2]; 20.0 mg/kg i.v., 20 min
  Changes(%) of basal values, coronary sinus oxygen tension: +3.2%
[2]; 20.0 mg/kg i.v., 30 min
  Changes(%) of basal values, coronary sinus oxygen tension: +2.0%
[2]; 20.0 mg/kg i.v., 40 min
  Changes(%) of basal values, coronary sinus oxygen tension: +0.2%
[2]; 20.0 mg/kg i.v., imm.
  Changes(%) of basal values, coronary sinus oxygen tension: +60.3%
[2]; i.v., anesthetized dogs
  Effects on coronary sinus oxygen tension (in words): a significant increase in coronary sinus oxygen tension, effect of which was of long duration
Coronary sinus out flow; 2.0 mg/kg i.v., 1 min
  Changes(%) of basal values, coronary sinus out flow: +1.6%
Coronary sinus out flow; 2.0 mg/kg i.v., 5 min
  Changes(%) of basal values, coronary sinus out flow: -3.1%
Coronary sinus out flow; 2.0 mg/kg i.v., 10 min
  Changes(%) of basal values, coronary sinus out flow: -1.0%
Coronary sinus out flow; 2.0 mg/kg i.v., 20 min
  Changes(%) of basal values, coronary sinus out flow: 0%
Coronary sinus out flow; 2.0 mg/kg i.v., 30 min
  Changes(%) of basal values, coronary sinus out flow: 0%
Coronary sinus out flow; 2.0 mg/kg i.v., 40 min
  Changes(%) of basal values, coronary sinus out flow: 0%
Coronary sinus out flow; 2.0 mg/kg i.v., imm.
  Changes(%) of basal values, coronary sinus out flow: +6.2%
Coronary sinus out flow; 6.0 mg/kg i.v., 1 min
  Changes(%) of basal values, coronary sinus out flow: +9.1%
Coronary sinus out flow; 6.0 mg/kg i.v., 5 min
  Changes(%) of basal values, coronary sinus out flow: -0.2%
Coronary sinus out flow; 6.0 mg/kg i.v., 10 min
  Changes(%) of basal values, coronary sinus out flow: -0.4%
Coronary sinus out flow; 6.0 mg/kg i.v., 20 min
  Changes(%) of basal values, coronary sinus out flow: -0.2%
Coronary sinus out flow; 6.0 mg/kg i.v., 30 min
  Changes(%) of basal values, coronary sinus out flow: 0%
Coronary sinus out flow; 6.0 mg/kg i.v., 40 min
  Changes(%) of basal values, coronary sinus out flow: 0%
Coronary sinus out flow; 6.0 mg/kg i.v., imm.
  Changes(%) of basal values, coronary sinus out flow: +23.0%
Coronary sinus out flow; 20.0 mg/kg i.v., 1 min
  Changes(%) of basal values, coronary sinus out flow: +49.3%
Coronary sinus out flow; 20.0 mg/kg i.v., 5 min
  Changes(%) of basal values, coronary sinus out flow: +9.1%
Coronary sinus out flow; 20.0 mg/kg i.v., 10 min
  Changes(%) of basal values, coronary sinus out flow: +8.4%
Coronary sinus out flow; 20.0 mg/kg i.v., 20 min
  Changes(%) of basal values, coronary sinus out flow: +8.0%
Coronary sinus out flow; 20.0 mg/kg i.v., 30 min
  Changes(%) of basal values, coronary sinus out flow: +5.7%
Coronary sinus out flow; 20.0 mg/kg i.v., 40 min
  Changes(%) of basal values, coronary sinus out flow: +3.0%
Coronary sinus out flow; 20.0 mg/kg i.v., imm.
  Changes(%) of basal values, coronary sinus out flow: +66.2%
Coronary sinus out flow; i.v., anesthetized dogs
  Effects on coronary sinus out flow (in words): a marked increasing effect on coronary sinus out flow, which was proportioned to doses thereof and of long duration
